Where a name gives a salt, the structure may show the parent alone. Marks after values point to notes of the source that are not given here. Ends that are not written are not given here.
Legend:
NPFF2-R [1] = molecular target: T1, NPFF2-R (Homo sapiens, UniProt Q9Y5X5); conditions: cited from earlier work; for selectivity for the hNPFF2 subtype: radioligand competition binding assays
NPFF2-R [2] = molecular target: T1, NPFF2-R; assay type: binding
[3] = molecular target: membrane of rat spinal cord; conditions: read-out: Ki in the membrane of rat spinal cord; cited from earlier work
NPFF1-R [4] = molecular target: T2, NPFF1-R (Homo sapiens, UniProt Q9GZQ6); assay type: cell-based
NPFF1-R [5] = molecular target: T2, NPFF1-R; conditions: read-out: hNPFF1-R Ki; radioligand displacement assays; cited from earlier work
NPFF1-R [6] = molecular target: T2, NPFF1-R; conditions: read-out: cAMP hNPFF1-R antagonist activity EC50; data taken from ref 15; cited from earlier work
NPFF1-R [7] = molecular target: T2, NPFF1-R; assay type: binding
NPFF2-R [8] = molecular target: T1, NPFF2-R; assay type: binding; remark: listed apart in the source
NPFF2-R [9] = molecular target: T1, NPFF2-R; assay type: cell-based
NPFF1-R [10] = molecular target: T2, NPFF1-R; experiment: [35S]GTPγS binding assay, membranes of NPFF1-R expressing CHO cells; assay type: biochemical; conditions: tested at 10 μM; % maximal activation
NPFF2-R [11] = molecular target: T1, NPFF2-R; experiment: [35S]GTPγS binding assay, membranes of NPFF2-R expressing CHO cells; assay type: biochemical; conditions: tested at 10 μM; % maximal activation

T2 sequence (Q9GZQ6 whole entry): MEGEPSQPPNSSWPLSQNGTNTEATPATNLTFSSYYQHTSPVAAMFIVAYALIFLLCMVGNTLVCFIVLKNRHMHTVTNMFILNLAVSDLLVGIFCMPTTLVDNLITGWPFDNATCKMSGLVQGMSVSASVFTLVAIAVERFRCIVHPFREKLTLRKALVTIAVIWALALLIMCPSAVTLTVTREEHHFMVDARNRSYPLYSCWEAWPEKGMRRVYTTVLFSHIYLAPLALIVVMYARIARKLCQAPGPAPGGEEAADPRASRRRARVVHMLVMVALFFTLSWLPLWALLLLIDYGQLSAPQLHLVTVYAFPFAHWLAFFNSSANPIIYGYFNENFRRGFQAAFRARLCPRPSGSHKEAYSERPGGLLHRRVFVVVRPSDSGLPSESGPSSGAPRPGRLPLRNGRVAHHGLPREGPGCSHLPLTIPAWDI
T1 sequence (Q9Y5X5 whole entry): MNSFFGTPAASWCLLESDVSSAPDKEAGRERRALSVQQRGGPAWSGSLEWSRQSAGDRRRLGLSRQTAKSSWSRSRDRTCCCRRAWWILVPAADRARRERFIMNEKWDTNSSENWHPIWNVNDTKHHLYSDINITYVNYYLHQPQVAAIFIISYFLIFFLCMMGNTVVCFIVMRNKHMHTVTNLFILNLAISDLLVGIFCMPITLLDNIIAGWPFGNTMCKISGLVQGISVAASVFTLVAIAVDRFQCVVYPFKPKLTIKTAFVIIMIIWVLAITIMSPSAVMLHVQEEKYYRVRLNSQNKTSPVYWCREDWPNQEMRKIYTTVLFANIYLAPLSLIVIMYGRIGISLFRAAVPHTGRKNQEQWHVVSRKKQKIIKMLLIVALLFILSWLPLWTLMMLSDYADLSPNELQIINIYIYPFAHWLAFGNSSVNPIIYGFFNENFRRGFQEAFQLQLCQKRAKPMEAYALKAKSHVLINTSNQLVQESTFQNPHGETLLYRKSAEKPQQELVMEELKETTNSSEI

## SLNFEELKDWGPKNVIKMSTPAVNKMPHSFANLPLRFa [hNPSF]
NPFF2-R [1]
  selectivity for the hNPFF2 subtype: 1.2 fold

## N=C(N)NCCC[C@H](N)C(=O)NCC1CCN(Cc2ccccc2)CC1 [compound 15, 2-Amino-N-((1-benzylpiperidin-4-yl)methyl)-5-guanidinopentanamide Hydrochloride]
NPFF2-R [2]
  fold loss of affinity at NPFF2-R relative to 7b: 7 fold

## FLFQPQRFa [NPFF]
[3]
  Ki: 0.21 nM

## n-adamantanecarbonyl-Arg-Phe-NH2 [RF9]
NPFF2-R [1]; read-out: hNPFF2-R Ki, radioligand displacement assays
  Ki: 75 ± 9 nM
NPFF1-R [4]
  cAMP hNPFF1-R Emax, %: 79 ± 5 ^c %
NPFF1-R [5]
  Ki: 58 ± 5 nM
NPFF1-R [6]
  EC50: 4700 ± 1200 nM

## AGEGLSSPFWSLAAPQRFa [hNPAF]
NPFF2-R [1]
  selectivity for the hNPFF2 subtype: 10.1 fold

## N=C(N)NCC(=O)NCC1(CCc2ccccc2)CCN(Cc2ccccc2)CC1 [compound 43, N-((1-Benzyl-4-phenethylpiperidin-4-yl)methyl)-2-guanidinoacetamide Ditriflate]
NPFF1-R [7]
  ratio, preference for NPFF1: 3-fold (NPFF1)
NPFF2-R [8]
  fold loss of affinity at NPFF2-R relative to 42: 5.5 fold

## COc1cc(NC2(CNC(=O)CNC(=N)N)CCN(Cc3ccccc3)CC2)cc(OC)c1 [30b, N-((1-Benzyl-4-(3,5-dimethoxyphenylamino)piperidin-4-yl)methyl)-2-guanidinoacetamide Tritriflate]
NPFF1-R [7]
  ratio, preference for NPFF1: 8.7-fold (NPFF1)
NPFF1-R [4]
  Highest concentration showing no agonist activity when tested alone, hNPFF1-R: >10K ^f

## N=C(N)NCC(=O)NCC1(Cc2ccccc2)CCN(Cc2ccccc2)CC1 [compound 42, N-((1,4-Dibenzylpiperidin-4-yl)methyl)-2-guanidinoacetamide Ditriflate]
NPFF2-R [8]
  fold gain of affinity at NPFF2-R compared with lead 21: 5 fold
NPFF2-R [9]
  Highest concentration showing no agonist activity when tested alone, hNPFF2-R: 1K ^f

## N=C(N)NCC(=O)NCC1(Nc2ccccc2)CCN(CC2CCCCC2)CC1 [49b, N-((1-(Cyclohexylmethyl)-4-(phenylamino)piperidin-4-yl)methyl)-2-guanidinoacetamide Tritriflate]
NPFF1-R [7]
  fold loss of affinity at NPFF1-R relative to lead 21: 5 fold
NPFF2-R [8]
  fold gain of affinity at NPFF2-R compared with lead 21: 1.2–3.1 fold

## N=C(N)NCCC[C@H](N)C(=O)NCC1(Nc2ccccc2)CCN(Cc2ccccc2)CC1 [7b, 2-Amino-N-((1-benzyl-4-(phenylamino)piperidin-4-yl)methyl)-5-guanidinopentanamide Hydrochloride]
NPFF1-R [10]
  % stimulation (increase) of [35S]GTPγS binding at NPFF1-R: 36 ^d %
NPFF2-R [11]
  % stimulation (increase) of [35S]GTPγS binding at NPFF2-R: 184 ^d %

## N=C(N)NCC(=O)NCC1(Nc2ccc(Cl)c(Cl)c2)CCN(Cc2ccccc2)CC1 [30d, N-((1-Benzyl-4-(3,4-dichlorophenylamino)piperidin-4-yl)methyl)-2-guanidinoacetamide Tritriflate]
NPFF1-R [7]
  ratio, preference for NPFF1: 2.1-fold (NPFF1)

## N=C(N)NCC(=O)NCC1(Nc2ccccc2)CCN(Cc2cccc3ccccc23)CC1 [49d, 2-Guanidino-N-((1-(naphthalen-1-ylmethyl)-4-(phenylamino)piperidin-4-yl)methyl)acetamide Tritriflate]
NPFF2-R [8]
  fold gain of affinity at NPFF2-R compared with lead 21: 1.2–3.1 fold

## N=C(N)NCC(=O)NCC1(Nc2cccc3ccccc23)CCN(Cc2ccccc2)CC1 [30a, N-((1-Benzyl-4-(naphthalen-1-ylamino)piperidin-4-yl)methyl)-2-guanidinoacetamide Tritriflate]
NPFF1-R [7]
  ratio, preference for NPFF1: 3.3-fold (NPFF1)
NPFF1-R [4]
  Highest concentration showing no agonist activity when tested alone, hNPFF1-R: >10K ^f

## N=C(N)NCC(=O)NCC1(Nc2ccccc2)CCN(Cc2ccc3ccccc3c2)CC1 [49e, 2-Guanidino-N-((1-(naphthalen-2-ylmethyl)-4-(phenylamino)piperidin-4-yl)methyl)acetamide Tritriflate]
NPFF1-R [7]
  fold gain of affinity at NPFF1-R compared with lead 21: 2.3–2.8 fold

## N=C(N)NCC(=O)NCC1(c2ccccc2)CCN(Cc2ccccc2)CC1 [compound 34, N-((1-Benzyl-4-phenylpiperidin-4-yl)methyl)-2-guanidinoacetamide Ditriflate]
NPFF1-R [7]
  fold loss of affinity at NPFF1-R relative to lead 21: 1.6 fold
  ratio, preference for NPFF1: 6.9-fold (NPFF1)
NPFF2-R [8]
  fold loss of affinity at NPFF2-R relative to lead 21: 8.7 fold

## N=C(N)NCC(=O)NCC1(Nc2ccccc2)CCN(Cc2ccccc2)CC1 [compound 21, N-((1-Benzyl-4-(phenylamino)piperidin-4-yl)methyl)-2-guanidinoacetamide tritriflate]
NPFF1-R [7]
  fold increase in affinity at NPFF1-R compared with lead 7b: 1.5 fold
NPFF1-R [4]
  Agonist activity alone at NPFF1-R: weak partial agonist activity
NPFF2-R [8]
  fold increase in affinity at NPFF2-R compared with lead 7b: 2.6 fold
NPFF2-R [9]
  % inhibition of forskolin-stimulated cAMP accumulation (cyclase) at NPFF2-R: 20–25 ^e %
  Agonist activity alone at NPFF2-R: weak partial agonist activity

## SQAFLFQPQRFa (SQAFLFQPQRF-NH2; UniProt O15130 66-76, looked up) [hNPFF]
NPFF2-R [1]
  selectivity for the hNPFF2 subtype: 10.7 fold

## N=C(N)NCC(=O)NCC1(Cc2ccc(Cl)c(Cl)c2)CCN(Cc2ccccc2)CC1 [53b, N-((1-Benzyl-4-(3,4-dichlorobenzyl)piperidin-4-yl)methyl)-2-guanidinoacetamide Ditriflate]
NPFF2-R [8]
  fold loss of affinity at NPFF2-R relative to 53a: 2.7 fold

## COc1cccc(NC2(CNC(=O)CNC(=N)N)CCN(Cc3ccccc3)CC2)c1 [30c, N-((1-Benzyl-4-(3-methoxyphenylamino)piperidin-4-yl)methyl)-2-guanidinoacetamide Tritriflate]
NPFF1-R [7]
  ratio, preference for NPFF1: 4.4-fold (NPFF1)

## N=C(N)NCC(=O)NCC1(Cc2cccc3ccccc23)CCN(Cc2ccccc2)CC1 [53a, N-((1-Benzyl-4-(naphthalen-1-ylmethyl)piperidin-4-yl)methyl)-2-guanidinoacetamide Tritriflate]
NPFF1-R [4]
  Activity alone at NPFF1-R: low activity
NPFF2-R [8]
  fold gain of affinity at NPFF2-R compared with lead 21: 14 fold
  fold increase in affinity at NPFF2-R relative to lead 42: 2.8 fold
NPFF2-R [9]
  Activity alone at NPFF2-R: low activity

## N=C(N)NCCNC(=O)C1(Nc2ccccc2)CCN(Cc2ccccc2)CC1 [compound 46, 1-Benzyl-N-(2-guanidinoethyl)-4-(phenylamino)piperidine-4-carboxamide Tritriflate]
NPFF1-R [7]
  fold gain of affinity at NPFF1-R compared with lead 21: 4 fold

## N=C(N)NCC(=O)NCC1(Nc2ccccc2)CCN(CCc2ccccc2)CC1 [49c, 2-Guanidino-N-((1-phenethyl-4-(phenylamino)piperidin-4-yl)methyl)acetamide Tritriflate]
NPFF2-R [8]
  fold gain of affinity at NPFF2-R compared with lead 21: 1.2–3.1 fold

## N=C(N)NCC(=O)NCC1(Nc2ccccc2)CCN(Cc2ccc(Br)cc2)CC1 [49f, N-((1-(4-Bromobenzyl)-4-(phenylamino)piperidin-4-yl)methyl)-2-guanidinoacetamide Tritriflate]
NPFF1-R [7]
  fold gain of affinity at NPFF1-R compared with lead 21: 2.3–2.8 fold

## N=C(N)NCC(=O)NCC1(Cc2ccc3ccccc3c2)CCN(Cc2ccccc2)CC1 [53c, N-((1-Benzyl-4-(naphthalen-2-ylmethyl)piperidin-4-yl)methyl)-2-guanidinoacetamide Ditriflate]
NPFF2-R [8]
  fold loss of affinity at NPFF2-R relative to 53a: 6.8 fold
  ratio, preference for NPFF2: 1.5-fold (NPFF2)

## N=C(N)NCC(=O)NCC1(Cc2ccc(-c3ccccc3)cc2)CCN(Cc2ccccc2)CC1 [53d, N-((1-Benzyl-4-(biphenyl-4-ylmethyl)piperidin-4-yl)methyl)-2-guanidinoacetamide Ditriflate]
NPFF1-R [7]
  ratio, preference for NPFF1: 3-fold (NPFF1)
NPFF2-R [8]
  fold loss of affinity at NPFF2-R relative to 53a: 30 fold

— article PMC4234442 (Journal of Medicinal Chemistry, 2014)
